Test results as given in ChEMBL document CHEMBL1132879, “High potent and selective arylpiperazine derivatives as ligands for the 5-HT1A receptor” (Bioorg Med Chem Lett, 2000).

How the values were obtained:
[1] = biological target: Serotonin 1a (5-HT1a) receptor/Adrenergic receptor alpha-1 (Rattus norvegicus) (UniProt P15823+P23944+P43140+P19327); assay: Selectivity for 5-HT1A serotonin over alpha-1-adrenergic receptors; assay type: protein assay
[2] = biological target: T1, 5-hydroxytryptamine receptor 1A (Rattus norvegicus, UniProt P19327); assay: Displacement of [3H]8-OH-DPAT from 5-hydroxytryptamine 1A receptor of rat hippocampus membranes; assay type: cell membranes, Membrane
T1 sequence (P19327 whole entry): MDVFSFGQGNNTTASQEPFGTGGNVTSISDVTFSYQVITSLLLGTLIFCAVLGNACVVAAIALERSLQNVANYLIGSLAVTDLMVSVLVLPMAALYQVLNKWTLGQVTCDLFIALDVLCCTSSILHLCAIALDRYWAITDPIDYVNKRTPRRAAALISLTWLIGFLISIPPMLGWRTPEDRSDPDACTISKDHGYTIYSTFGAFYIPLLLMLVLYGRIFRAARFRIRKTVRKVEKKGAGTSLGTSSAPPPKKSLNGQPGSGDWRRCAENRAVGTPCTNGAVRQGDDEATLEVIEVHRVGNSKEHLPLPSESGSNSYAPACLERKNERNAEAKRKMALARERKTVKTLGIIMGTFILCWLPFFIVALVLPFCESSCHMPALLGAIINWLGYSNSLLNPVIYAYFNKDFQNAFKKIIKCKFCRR

[3] = biological target: T2, Adrenergic receptor alpha-1 (Rattus norvegicus, UniProt P15823+P23944+P43140); assay: Displacement of [3H]prazosin from Alpha-1 adrenergic receptor of rat cortex membranes; assay type: cell membranes, Membrane
T2 sequence (P15823 whole entry): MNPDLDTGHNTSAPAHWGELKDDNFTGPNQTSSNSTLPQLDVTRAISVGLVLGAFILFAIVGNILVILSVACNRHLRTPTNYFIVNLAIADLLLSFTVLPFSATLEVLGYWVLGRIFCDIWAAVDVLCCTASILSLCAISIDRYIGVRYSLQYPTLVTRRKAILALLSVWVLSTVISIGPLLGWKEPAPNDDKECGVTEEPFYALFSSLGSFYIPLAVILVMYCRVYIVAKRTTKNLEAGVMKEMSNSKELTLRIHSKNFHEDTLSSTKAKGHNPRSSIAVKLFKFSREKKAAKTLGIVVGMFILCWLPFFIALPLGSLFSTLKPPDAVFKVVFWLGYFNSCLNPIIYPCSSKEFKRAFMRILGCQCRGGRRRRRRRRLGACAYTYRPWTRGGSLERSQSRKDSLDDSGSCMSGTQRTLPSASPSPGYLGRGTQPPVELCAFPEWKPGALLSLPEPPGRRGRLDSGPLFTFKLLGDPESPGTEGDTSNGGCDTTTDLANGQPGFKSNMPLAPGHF
T2 sequence (P23944 whole entry): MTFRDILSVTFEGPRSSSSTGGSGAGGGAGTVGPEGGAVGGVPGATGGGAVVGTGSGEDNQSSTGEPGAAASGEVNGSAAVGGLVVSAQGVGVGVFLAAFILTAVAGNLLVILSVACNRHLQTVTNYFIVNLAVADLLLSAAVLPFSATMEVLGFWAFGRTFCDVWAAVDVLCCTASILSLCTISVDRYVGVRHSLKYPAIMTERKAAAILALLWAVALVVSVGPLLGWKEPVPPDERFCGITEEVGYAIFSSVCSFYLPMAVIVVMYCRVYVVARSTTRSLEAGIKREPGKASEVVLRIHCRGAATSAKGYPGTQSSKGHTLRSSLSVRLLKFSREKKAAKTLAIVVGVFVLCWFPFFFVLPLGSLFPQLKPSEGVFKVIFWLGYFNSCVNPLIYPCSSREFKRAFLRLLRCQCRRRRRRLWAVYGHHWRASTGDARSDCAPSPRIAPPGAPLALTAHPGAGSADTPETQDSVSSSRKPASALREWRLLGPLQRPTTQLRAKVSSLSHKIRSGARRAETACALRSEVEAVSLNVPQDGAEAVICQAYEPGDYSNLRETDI
T2 sequence (P43140 whole entry): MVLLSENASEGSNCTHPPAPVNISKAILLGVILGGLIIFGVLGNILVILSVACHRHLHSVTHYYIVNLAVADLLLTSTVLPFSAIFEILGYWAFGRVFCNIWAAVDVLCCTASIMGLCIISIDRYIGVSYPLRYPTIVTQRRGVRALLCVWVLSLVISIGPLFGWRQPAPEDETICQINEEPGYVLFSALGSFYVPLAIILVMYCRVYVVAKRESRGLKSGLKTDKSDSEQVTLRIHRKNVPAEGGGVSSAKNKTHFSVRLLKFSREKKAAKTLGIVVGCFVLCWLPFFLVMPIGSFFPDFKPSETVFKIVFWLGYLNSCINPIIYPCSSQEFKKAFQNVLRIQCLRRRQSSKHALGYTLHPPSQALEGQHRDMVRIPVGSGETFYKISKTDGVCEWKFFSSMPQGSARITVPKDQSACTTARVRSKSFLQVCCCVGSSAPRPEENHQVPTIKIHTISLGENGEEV

SMILES | Selectivity [1] | Ki [2] | Ki [3]
CCc1cc2c(=O)n(N)c(SCCCN3CCN(c4ccccc4OC)CC3)nc2s1 | 115 | 0.19 nM | 21.96 nM
CCOc1ccccc1-c1nnc(SCCCN2CCN(c3ccccc3[N+](=O)[O-])CC2)s1 | 3 | 135 nM | 437 nM
COc1ccccc1N1CCN(CCCSc2nc3sc4c(c3c(=O)n2N)CCC4)CC1 | 28 | 0.26 nM | 7.39 nM
Cc1sc2nc(SCCCN3CCN(c4ncccn4)CC3)n(N)c(=O)c2c1C | 117 | 3.72 nM | 434 nM
COc1ccccc1N1CCN(CCCSc2nc(N)c3c(C)c(C)sc3n2)CC1 | 4.4 | 2.45 nM | 10.8 nM
COc1ccccc1N1CCN(CCCSc2nc3sc(C)c(C)c3c(=O)n2N)CC1 | 39 | 0.16 nM | 6.26 nM
Nn1c(SCCCN2CCN(c3ncccn3)CC2)nc2sccc2c1=O | 73 | 5.06 nM | 366.31 nM
CCc1cc2c(=O)n(N)c(SCCCN3CCN(c4ncccn4)CC3)nc2s1 | 207 | 9.4 nM | 1946 nM
CCc1cc2c(=O)n(N)c(SCCCN3CCN(c4ccccc4[N+](=O)[O-])CC3)nc2s1 | 20 | 9.69 nM | 194.8 nM
CCOc1ccccc1-c1nnc(SCCCN2CCN(c3ccccc3OC)CC2)s1 | 4.6 | 6.84 nM | 31.5 nM
CCCc1cc2c(=O)n(N)c(SCCCN3CCN(c4ccccc4OC)CC3)nc2s1 | 14 | 1.4 nM | 19.65 nM
COc1ccccc1N1CCN(CCCSc2nc3sccc3c(=O)n2N)CC1 | 3.8 | 0.65 nM | 2.48 nM
Nn1c(SCCCN2CCN(c3ccccc3[N+](=O)[O-])CC2)nc2sccc2c1=O | 13 | 3 nM | 39.87 nM
Cc1sc2nc(SCCCN3CCN(c4ccccc4[N+](=O)[O-])CC3)n(N)c(=O)c2c1C | 53 | 1.46 nM | 123 nM
